Patent US20230265151A1, “GIP/GLP1 CO-AGONIST COMPOUNDS” (priority 2020, published 2023)
Like-named read-outs stand apart in the source and are kept apart here. *1 amine or outer side, *2 acyl side, *3 side chain or, on linkers, in order; H or OH if unused. Where a SMILES comes first, the peptide text is derived from it. Side-chain parts run from the residue outwards. [ ]: non-standard residue; d: D form. The star is where a group is joined. Undecanoyl(11-OPh(4-COOH)) = O=C(O)c1ccc(OCCCCCCCCCCC(=O)*)cc1; αMePhe(2-F) = C[C@](N)(Cc1ccccc1F)C(=O)O; γGlu = O=C(O)[C@H](CCC(=O)[*:2])N[*:1]; αMeY = C[C@](N)(Cc1ccc(O)cc1)C(=O)O; 4Pal = N[C@@H](Cc1ccncc1)C(=O)O; αMeL = CC(C)C[C@](C)(N)C(=O)O; Orn = NCCC[C@H](N)C(=O)O; AEEA = NCCOCCOCC(=O)O; Aib = CC(C)(N)C(=O)O

Tests used:
Type in all cases: cell-based
[1] = target: hGLP-1R (Homo sapiens, UniProt P43220); assay: Functional cAMP formation (HTRF) in HEK-293 clonal cells expressing hGLP-1R, 0.1% bovine casein, without or with 1.0% human serum albumin; design: expressed in transfected cells; details: for EC50: geometric mean
How it was run: (§1)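 Readings of the HTRF 665/620 nm ratio, which falls as cAMP rises, were converted to nM cAMP using a standard curve after 30 min peptide exposure at 37° C.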

[2] = target: T1, hGIPR (Homo sapiens, UniProt P48546); assay: Functional cAMP formation (HTRF) in HEK-293 clonal cells expressing hGIPR, 0.1% bovine casein, without or with 1.0% human serum albumin; details: for EC50: cAMP, incubated at 37° C., 0.1% bovine casein (no human serum albumin), geometric mean
T1 construct: expressed in transfected cells
T1 sequence (P48546 22-466): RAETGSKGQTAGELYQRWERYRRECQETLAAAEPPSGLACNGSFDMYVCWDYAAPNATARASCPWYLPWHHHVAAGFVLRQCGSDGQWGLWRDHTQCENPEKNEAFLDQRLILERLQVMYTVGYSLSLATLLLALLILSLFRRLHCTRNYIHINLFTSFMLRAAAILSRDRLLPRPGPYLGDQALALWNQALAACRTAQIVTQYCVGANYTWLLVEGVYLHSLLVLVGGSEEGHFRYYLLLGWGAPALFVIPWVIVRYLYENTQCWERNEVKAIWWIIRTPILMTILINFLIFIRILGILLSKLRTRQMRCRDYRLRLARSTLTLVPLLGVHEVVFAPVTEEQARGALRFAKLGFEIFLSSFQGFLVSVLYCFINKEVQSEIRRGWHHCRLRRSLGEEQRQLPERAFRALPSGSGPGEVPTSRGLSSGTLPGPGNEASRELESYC
How it was run: as §1

[3] = target: T2, hGCGR (Homo sapiens, UniProt P47871); assay: Functional cAMP formation (HTRF) in HEK-293 clonal cells expressing hGCGR, 0.1% bovine casein, without or with 1.0% human serum albumin; details: geometric mean
T2 construct: expressed in transfected cells
How it was run: as §1

hGLP-1R, sequence (P43220 24-463): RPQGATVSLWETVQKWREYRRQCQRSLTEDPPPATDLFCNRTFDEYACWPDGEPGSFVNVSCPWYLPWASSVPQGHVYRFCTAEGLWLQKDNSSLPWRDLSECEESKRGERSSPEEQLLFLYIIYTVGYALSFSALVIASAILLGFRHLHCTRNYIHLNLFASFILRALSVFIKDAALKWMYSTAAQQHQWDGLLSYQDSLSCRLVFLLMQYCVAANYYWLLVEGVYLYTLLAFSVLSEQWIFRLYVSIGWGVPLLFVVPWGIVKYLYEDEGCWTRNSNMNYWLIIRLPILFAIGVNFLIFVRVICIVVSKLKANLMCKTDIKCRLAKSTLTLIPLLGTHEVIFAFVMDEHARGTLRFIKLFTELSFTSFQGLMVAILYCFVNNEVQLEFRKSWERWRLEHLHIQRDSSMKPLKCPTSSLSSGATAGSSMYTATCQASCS
T2 sequence (P47871 26-477): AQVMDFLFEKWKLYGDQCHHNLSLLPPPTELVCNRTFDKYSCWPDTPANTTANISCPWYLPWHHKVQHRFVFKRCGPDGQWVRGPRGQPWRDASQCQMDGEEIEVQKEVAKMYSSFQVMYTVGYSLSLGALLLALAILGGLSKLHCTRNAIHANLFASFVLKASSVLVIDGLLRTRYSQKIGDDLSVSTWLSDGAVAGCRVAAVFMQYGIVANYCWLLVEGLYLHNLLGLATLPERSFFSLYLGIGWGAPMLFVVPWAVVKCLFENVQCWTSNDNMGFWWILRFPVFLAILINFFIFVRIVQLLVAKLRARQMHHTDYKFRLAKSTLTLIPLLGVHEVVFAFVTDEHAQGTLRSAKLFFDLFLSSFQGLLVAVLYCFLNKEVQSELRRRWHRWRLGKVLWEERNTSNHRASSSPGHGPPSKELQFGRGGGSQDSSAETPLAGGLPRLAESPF

SMILES | EC50 ([1]; 0.1% bovine casein and 1.0% human serum albumin, 37° C., read-out: hGLP-1R EC50, nM (SEM, n)) | Emax ([1]; HEK293, 0.1% bovine casein and 1.0% human serum albumin, 37° C., percent of maximal response to GLP-1(7-36)NH2, read-out: hGLP-1R Emax, % ± SEM) | Emax ([1]; HEK293, percent of maximal response to GLP-1(7-36)NH2, 37° C., 0.1% bovine casein, arithmetic mean, read-out: hGLP-1R Emax, % ± SEM) | EC50 ([1]; cAMP, incubated at 37° C., 0.1% bovine casein (no human serum albumin), read-out: hGLP-1R EC50, nM (SEM, n)) | Emax ([2]; HEK293, 0.1% bovine casein and 1.0% human serum albumin, 37° C., percent of maximal response to GIP(1-42)NH2, read-out: hGIPR Emax, % ± SEM) | Emax ([2]; HEK293, percent of maximal response to GIP(1-42)NH2, 37° C., 0.1% bovine casein, arithmetic mean, read-out: hGIPR Emax, % ± SEM) | EC50 ([2]; read-out: hGIPR EC50, nM (SEM, n)) | EC50 ([3]; 0.1% bovine casein and 1.0% human serum albumin, 37° C., read-out: hGCGR EC50, nM (SEM, n)) | EC50 ([3]; cAMP, incubated at 37° C., 0.1% bovine casein (no human serum albumin), read-out: hGCGR EC50, nM (SEM, n)) | Emax ([1]; HEK293, read-out: hGLP-1R Emax, % ± SEM, percent of maximal response to GLP-1(7-36)NH2, 37° C., 0.1% bovine casein, arithmetic mean) | EC50 ([1]; hGLP-1R EC50, nM (SEM, n), cAMP, incubated at 37° C., 0.1% bovine casein (no human serum albumin)) | Emax ([2]; HEK293, read-out: hGIPR Emax, % ± SEM, 0.1% bovine casein and 1.0% human serum albumin, 37° C., percent of maximal response to GIP(1-42)NH2) | Emax ([2]; HEK293, read-out: hGIPR Emax, % ± SEM, percent of maximal response to GIP(1-42)NH2, 37° C., 0.1% bovine casein, arithmetic mean) | EC50 ([2]; hGIPR EC50, nM (SEM, n)) | EC50 ([3]; hGCGR EC50, nM (SEM, n), 0.1% bovine casein and 1.0% human serum albumin, 37° C.) | EC50 ([3]; hGCGR EC50, nM (SEM, n), cAMP, incubated at 37° C., 0.1% bovine casein (no human serum albumin))
CC[C@H](C)[C@H](NC(=O)[C@H](CCCN)NC(=O)[C@H](CC(=O)O)NC(=O)[C@H](CC(C)C)NC(=O)[C@](C)(CC(C)C)NC(=O)[C@@H](NC(=O)[C@H](CO)NC(=O)[C@H](Cc1ccncc1)NC(=O)[C@H](CC(=O)O)NC(=O)[C@H](CO)NC(=O)[C@@H](NC(=O)[C@](C)(Cc1ccccc1F)NC(=O)[C@@H](NC(=O)CNC(=O)[C@H](CCC(=O)O)NC(=O)C(C)(C)NC(=O)[C@@H](N)Cc1ccc(O)cc1)[C@@H](C)O)[C@@H](C)O)[C@@H](C)CC)C(=O)N[C@@H](C)C(=O)N[C@@H](CCC(N)=O)C(=O)NC(C)(C)C(=O)N[C@@H](CCC(=O)O)C(=O)N[C@@H](Cc1ccccc1)C(=O)N[C@H](C(=O)N[C@@H](CCCCNC(=O)COCCOCCNC(=O)COCCOCCNC(=O)CCCCCCCCCCCCC(=O)O)C(=O)N[C@@](C)(Cc1ccc(O)cc1)C(=O)N[C@@H](CC(C)C)C(=O)N[C@H](C(=O)N[C@@H](CCCCNC(=O)COCCOCCNC(=O)COCCOCCNC(=O)CCCCCCCCCCCCC(=O)O)C(=O)NCC(=O)NCC(=O)N1CCC[C@H]1C(=O)N[C@@H](CO)C(=O)N[C@@H](CO)C(=O)NCC(=O)N[C@@H](C)C(=O)N1CCC[C@H]1C(=O)N1CCC[C@H]1C(=O)N1CCC[C@H]1C(=O)N[C@@H](CO)C(N)=O)[C@@H](C)CC)[C@@H](C)CC [Example 192] | 11.2 nM | 121 ± 2.56% | 100 ± 2.34% | 0.518 nM | 93.6 ± 3.98% | 96.5 ± 4.86% | 0.0375 nM | > 9950 nM | > 9950 nM |  |  |  |  |  |  | 
CC[C@H](C)[C@H](NC(=O)[C@H](CCCN)NC(=O)[C@H](CC(=O)O)NC(=O)[C@H](CC(C)C)NC(=O)[C@](C)(CC(C)C)NC(=O)[C@@H](NC(=O)C(C)(C)NC(=O)[C@H](Cc1ccncc1)NC(=O)[C@H](CC(=O)O)NC(=O)[C@H](CO)NC(=O)[C@@H](NC(=O)[C@](C)(Cc1ccccc1F)NC(=O)[C@@H](NC(=O)CNC(=O)[C@H](CCC(=O)O)NC(=O)C(C)(C)NC(=O)[C@@H](N)Cc1ccc(O)cc1)[C@@H](C)O)[C@@H](C)O)[C@@H](C)CC)C(=O)N[C@@H](C)C(=O)N[C@@H](CCC(N)=O)C(=O)NC(C)(C)C(=O)N[C@@H](CCCCNC(=O)COCCOCCNC(=O)COCCOCCNC(=O)CC[C@H](NC(=O)CCCCCCCCCCOc1ccc(C(=O)O)cc1)C(=O)O)C(=O)N[C@@H](Cc1ccccc1)C(=O)N[C@H](C(=O)N[C@H](CCC(=O)O)C(=O)N[C@@](C)(Cc1ccc(O)cc1)C(=O)N[C@@H](CC(C)C)C(=O)N[C@H](C(=O)N[C@@H](CCC(=O)O)C(=O)NCC(=O)NCC(=O)N1CCC[C@H]1C(=O)N[C@@H](CO)C(=O)N[C@@H](CO)C(=O)NCC(=O)N[C@@H](C)C(=O)N1CCC[C@H]1C(=O)N1CCC[C@H]1C(=O)N1CCC[C@H]1C(=O)N[C@@H](CO)C(=O)N[C@@H](CCCCNC(=O)COCCOCCNC(=O)COCCOCCNC(=O)CC[C@H](NC(=O)CCCCCCCCCCOc1ccc(C(=O)O)cc1)C(=O)O)C(N)=O)[C@@H](C)CC)[C@@H](C)CC [Example 242] (H-Y[Aib]EGT[αMePhe(2-F)]TSD[4Pal][Aib]I[αMeL]LD[Orn]IAQ[Aib]K([AEEA-AEEA-γGlu-Undecanoyl(11-OPh(4-COOH))])FI[dE][αMeY]LIEGGPSSGAPPPSK([AEEA-AEEA-γGlu-Undecanoyl(11-OPh(4-COOH))])-NH2) |  |  |  |  |  |  |  |  |  | 96.3% | 0.584 nM | 83.9% | 100% | 0.0197 nM | > 9950 nM | > 9950 nM
